Assay results as given in the supplement of paper PMC10307832.

Experiments:
Assay in all cases: relative viability (nuclei count vs DMSO), 5 days (fraction); higher = more cells survive
[1] = compound: CCOc1cc2ncc(C#N)c(Nc3ccc(OCc4ccccn4)c(Cl)c3)c2cc1NC(=O)/C=C/CN(C)C [Neratinib] + C[C@@H](Oc1cc(-c2cnn(C3CCNCC3)c2)cnc1N)c1c(Cl)ccc(F)c1Cl [Crizotinib] (partner 1 µM)
Method in brief: (§1)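 Lung cancer cell lines in 1536-well plates were dosed by pin tool the day after seeding, either with one drug alone or with a fixed anchor-drug dose plus five library-drug doses (not always all listed) in √10 steps. After 5 days, cells were fixed and their nuclei stained in one step (final 0.05% Triton X-100, 1% formaldehyde, 1 ug/ml Hoechst), then counted on 4× images. Relative viability is the nuclei count in treated wells divided by that in vehicle wells. Values are medians of duplicate plates.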

[2] = compound: CCOc1cc2ncc(C#N)c(Nc3ccc(OCc4ccccn4)c(Cl)c3)c2cc1NC(=O)/C=C/CN(C)C [Neratinib] + Cc1cc(Nc2cc(N3CCN(C)CC3)nc(Sc3ccc(NC(=O)C4CC4)cc3)n2)n[nH]1 [Tozasertib] (partner 0.1 µM)
Method in brief: as §1

[3] = compound: CCOc1cc2ncc(C#N)c(Nc3ccc(OCc4ccccn4)c(Cl)c3)c2cc1NC(=O)/C=C/CN(C)C [Neratinib] + Nc1ncn([C@H]2C[C@H](O)[C@@H](CO)O2)c(=O)n1 [Decitabine] (partner 2 µM)
Method in brief: as §1

[4] = compound: CCOc1cc2ncc(C#N)c(Nc3ccc(OCc4ccccn4)c(Cl)c3)c2cc1NC(=O)/C=C/CN(C)C [Neratinib] + CS(=O)(=O)CCNCc1ccc(-c2ccc3ncnc(Nc4ccc(OCc5cccc(F)c5)c(Cl)c4)c3c2)o1 [Lapatinib] (partner 2 µM)
Method in brief: as §1

Cell Line	relative viability ([1]; first compound 0.01 µM)	relative viability ([1]; first compound 0.03162 µM)	relative viability ([1]; first compound 0.1 µM)	relative viability ([1]; first compound 0.3162 µM)	relative viability ([1]; first compound 1 µM)	relative viability ([2]; first compound 0.01 µM)	relative viability ([2]; first compound 0.03162 µM)	relative viability ([2]; first compound 0.1 µM)	relative viability ([2]; first compound 0.3162 µM)	relative viability ([2]; first compound 1 µM)	relative viability ([3]; first compound 0.01 µM)	relative viability ([3]; first compound 0.03162 µM)	relative viability ([3]; first compound 0.3162 µM)	relative viability ([3]; first compound 1 µM)	relative viability ([4]; first compound 0.01 µM)	relative viability ([4]; first compound 0.03162 µM)	relative viability ([4]; first compound 0.1 µM)	relative viability ([4]; first compound 0.3162 µM)	relative viability ([4]; first compound 1 µM)	relative viability ([3]; first compound 0.1 µM)
201T	1.08	0.974	0.861	1.06	0.959	1.14	0.945	0.848	0.858	0.766	0.858	0.857	0.853	0.84	1.07	0.943	0.981	1.08	1.05	–
A-427	1.07	0.936	0.819	0.924	0.566	0.234	0.246	0.177	0.214	0.145	0.558	0.606	0.521	0.54	1.08	1.12	0.972	1	0.998	0.573
ABC-1	1.47	0.954	1.06	0.668	0.537	0.206	0.139	0.177	0.146	0.185	1.21	1.31	1.07	0.746	1.44	1.15	1.21	1.05	0.629	1.23
BEN	0.849	1.1	0.869	0.762	0.509	0.559	0.576	0.416	0.517	0.447	0.76	0.77	0.636	0.702	0.739	1.12	0.464	0.59	0.565	0.809
CAL-12T	0.84	0.945	0.408	0.256	0.206	0.487	0.288	0.249	0.178	0.122	–	–	–	–	0.725	0.702	0.529	0.635	0.295	–
COR-L23	0.853	0.678	0.589	0.564	0.503	0.216	0.217	0.193	0.186	0.176	0.456	0.478	0.495	0.473	1.07	1.14	0.781	0.882	0.598	0.499
COR-L 105	0.978	0.828	0.531	0.201	0.22	0.41	0.418	0.375	0.251	0.186	0.674	0.618	–	0.349	0.36	0.37	0.331	0.377	0.32	0.402
Calu-6	0.905	0.939	0.737	0.692	0.422	–	–	–	–	–	–	–	–	–	–	1.27	0.967	0.95	0.64	–
ChaGo-K-1	1.3	1.24	1.14	1.02	0.845	0.233	0.224	0.221	0.215	0.229	0.517	0.581	0.526	0.534	–	–	–	–	–	0.517
EBC-1	0.167	0.204	0.175	–	0.203	–	–	–	–	–	–	–	–	–	0.205	0.192	0.199	0.233	0.211	–
EKVX	1.32	1.08	0.823	0.452	0.211	0.416	0.42	0.345	0.197	0.13	0.339	0.351	0.197	0.16	0.186	0.212	0.179	0.195	0.189	0.324
EMC-BAC-2	0.828	0.817	0.635	0.709	0.407	0.326	0.352	0.317	0.314	0.188	1.12	1	0.988	0.929	1.03	0.965	0.826	0.856	0.864	0.942
EPLC-272H	0.997	0.964	0.799	0.613	0.553	–	0.204	0.267	0.269	0.203	0.407	0.444	0.331	0.344	0.889	0.849	0.829	0.899	0.536	0.332
H3255	0.836	0.838	0.671	0.243	0.164	0.759	0.721	0.423	0.233	0.236	0.548	0.471	0.218	0.245	0.257	0.333	0.273	0.229	0.176	0.454
HARA	1.19	1.09	0.731	0.782	0.489	0.106	0.104	0.0889	0.11	0.0872	0.573	0.493	–	0.476	0.994	0.73	0.339	0.569	0.712	0.414
HCC-15	0.843	0.906	0.829	0.707	0.648	0.673	0.453	0.39	0.341	0.174	0.684	0.703	0.662	0.597	0.947	1.01	0.715	0.756	0.725	0.646
HCC-44	0.821	0.8	0.727	0.806	0.851	1.31	1.15	–	0.778	0.458	0.993	0.983	0.922	1.09	1.04	1.15	0.792	0.963	1.07	0.897
HCC-78	0.325	0.3	0.284	0.264	0.225	0.584	0.373	0.401	0.379	0.238	0.816	–	0.691	0.649	0.89	1.09	0.788	0.952	0.398	0.651
HCC-366	0.653	0.766	0.46	0.48	0.519	0.102	0.114	0.144	0.0752	0.0557	0.361	0.429	0.368	0.471	1.27	1.18	0.901	1.09	1.06	0.33
HCC-827	0.986	0.996	0.778	0.7	0.176	0.414	0.428	0.396	0.268	0.136	0.375	0.354	0.243	0.217	0.223	0.229	0.17	0.174	0.165	0.271

Cell Line	relative viability ([1]; first compound 0.01 µM)	relative viability ([1]; first compound 0.03162 µM)	relative viability ([1]; first compound 0.1 µM)	relative viability ([1]; first compound 0.3162 µM)	relative viability ([1]; first compound 1 µM)	relative viability ([2]; first compound 0.01 µM)	relative viability ([2]; first compound 0.03162 µM)	relative viability ([2]; first compound 0.1 µM)	relative viability ([2]; first compound 0.3162 µM)	relative viability ([2]; first compound 1 µM)	relative viability ([3]; first compound 0.01 µM)	relative viability ([3]; first compound 0.03162 µM)	relative viability ([3]; first compound 0.3162 µM)	relative viability ([3]; first compound 1 µM)	relative viability ([4]; first compound 0.01 µM)	relative viability ([4]; first compound 0.03162 µM)	relative viability ([4]; first compound 0.1 µM)	relative viability ([4]; first compound 0.3162 µM)	relative viability ([4]; first compound 1 µM)	relative viability ([3]; first compound 0.1 µM)
HOP-62	1.07	1.05	0.806	0.932	0.958	0.444	0.354	0.33	0.369	0.32	0.215	0.222	–	0.215	–	–	0.879	0.825	1.21	0.198
IA-LM	0.981	0.799	0.681	0.766	0.536	–	–	–	–	–	–	–	–	–	0.708	0.822	0.63	0.914	0.619	–
LC-2-ad	0.456	0.457	0.41	0.386	0.294	0.448	0.424	0.455	0.388	0.277	0.931	0.815	0.7	–	0.993	0.974	0.783	1.06	0.978	0.72
LCLC-97TM1	0.344	0.33	0.314	0.242	0.136	0.239	0.189	0.298	0.238	0.121	0.258	0.251	–	0.215	1.29	1.01	1.02	0.637	0.275	0.276
LCLC-103H	1.09	0.989	0.88	0.892	0.884	0.44	0.503	0.502	0.511	0.365	0.772	0.8	0.761	0.7	–	–	–	–	–	0.585
LK-2	0.209	0.191	0.206	0.211	0.253	0.159	0.179	0.205	0.189	0.172	0.321	0.372	0.225	0.24	1.28	1.2	0.95	0.664	0.578	0.305
LOU-NH91	0.735	0.669	0.588	0.501	0.479	0.635	0.665	0.527	0.503	0.411	0.794	0.775	0.673	0.604	0.809	0.776	0.733	0.743	0.567	0.68
LU99A	0.513	0.586	0.472	0.527	0.32	0.286	0.279	0.274	0.25	0.19	–	1.12	0.952	0.578	1.04	1.05	0.692	0.587	0.385	0.752
LXF-289	0.879	0.871	0.75	0.821	0.752	0.22	0.233	0.183	0.174	0.186	0.382	0.396	0.349	0.421	–	0.964	0.809	0.924	0.937	0.39
NCI-H441	0.73	0.74	0.587	0.606	0.268	0.611	0.775	0.666	0.384	0.334	0.255	0.246	0.209	0.2	–	–	–	–	–	0.235
NCI-H1299	0.991	1.02	0.95	0.991	1.06	–	–	–	–	–	–	–	–	–	0.969	0.957	0.938	0.976	1.04	–
NCI-H1395	–	–	–	–	–	–	0.76	0.688	0.73	0.519	0.681	0.807	0.769	0.559	1.02	1.54	1.11	1.22	0.784	0.749
NCI-H1563	0.918	0.802	0.788	0.758	0.638	–	–	–	–	–	–	–	–	–	0.921	0.975	0.889	1.57	0.843	–
NCI-H1648	–	–	–	–	–	0.608	0.364	0.54	0.299	0.188	0.505	0.389	0.352	0.366	–	–	–	–	–	0.384
NCI-H1703	–	0.582	0.637	0.5	0.14	–	–	–	–	–	–	–	–	–	1.05	1.29	0.924	0.79	0.244	–
NCI-H1792	1.1	1.09	0.931	0.867	0.872	–	–	–	–	–	0.731	0.576	0.516	0.546	1.02	1.08	0.547	0.81	0.849	0.503
NCI-H1793	–	–	–	–	–	0.317	0.354	0.293	0.176	0.143	0.521	0.455	0.383	0.266	0.693	0.646	0.576	0.75	0.642	–
NCI-H2228	0.668	0.44	0.294	0.322	0.225	0.264	0.281	0.178	0.267	0.126	–	–	–	–	1.03	1.26	1.01	0.924	0.259	–
SW 900	–	–	–	–	–	0.561	0.444	0.673	0.517	0.387	0.438	0.43	0.514	0.469	–	–	–	–	–	0.427
